Patent US10858443B2, “Synthetic notch protein for modulating gene expression” (TRUSTEES OF BOSTON UNIVERSITY, priority 2017, dated 2020)
Entries after “also recorded” stand apart in the source; their conditions may differ.

Columns and labels:
NS3 protease [1] = target: T1, NS3 protease (Hepatitis C virus genotype 1a, UniProt P26664, A1066T/DELINS1218-1635AV/I1179L/T1080A); format: cell-based; conditions: Cho-K1 UAS H2B-Citrine line expressing DBGal4-NS3-TAGal4; drug ~24 hours; flow cytometry (FIG. 18)
NS3 protease [2] = target: T1, NS3 protease; format: cell-based; conditions: DBGal4-NS3-TAGal4, anti-HA western; intact TF undetectable in untreated controls
NS3 protease [3] = target: T1, NS3 protease; format: cell-based; conditions: increasing concentration of BILN-2061; 100 ng/mL doxycycline
human Notch1 = assay: Dll1-NS3-mCherry ligand presentation and sender/receiver coculture Notch signaling; format: cell-based; conditions: 1.5 μM BILN-2061
Description: FIG. 17C Immunofluorescence staining of fixed (non-permeabilized) cells expressing Dll1-NS3-mCherry. […] FIG. 17D Schematic depiction of trans-cellular signaling between Notch “receiver” cells by Dll1-NS3-mCherry expressing “sender” cells in the absence and presence of drug. FIG. 17E Fluorescence images of cocultured sender and receiver cells. Sender cells expressed the Dll1-NS3-mCherry ligand. Receiver cells constitutively expressed human Notch1 and H2B-Cerulean, and conditionally expressed H2B-Citrine upon up Notch activation. […] The interface between sender and receiver cells colonies is denoted by the white dotted line. FIG. 17F Magnified region from the inset shown in (17E) shown as an overlay with the corresponding transmitted light image.
FIGS. 25A and 25B show images of Dll1-NS3/4A-mCherry mediated cell-cell signaling captured by epifluorescence imaging under 10× magnification. FIG. 25A Sender cells expressing the Dll1-NS3/4A ligand are cultured with receiver cells expressing the Notch transmembrane receptor. Receiver cell population is identified by a constitutively expressed H2B-Cerulean. Notch activation drives reporter activity of H2B-Citrine. Cells are cultured together with or without 1.5 μM BILN-2061 drug for 72 hours before imaging. FIG. 25B […]

NS3 protease [4] = target: T1, NS3 protease; format: cell-based; conditions: for stabilization of full-length dCas9-NS3 TF (immunoblot): drug-treated versus untreated cells
NS3 protease [5] = target: T1, NS3 protease; format: cell-based; conditions: 3 μM BILN-2061
CXCR4 = assay: dCas9-NS3-NLS/VPR drug-induced gene upregulation (flow cytometry); format: cell-based, human; conditions: dCas9-NS3-NLS/VPR with sgRNA
Method: FIGS. 16A-16E show drug-control over endogenous gene expression using dCas9-NS3-NLSNPR. FIG. 16A Schematic depiction of the drug-inducible stabilization and nuclear localization of dCas9-NS3-NLSNPR. […] An unfused dCas9 domain (160 kDa) is produced in the absence of drug. FIG. 16C Immunostained HeLa cells showing the subcellular localization of the dCas9 domain in the presence or absence of 3 μM BILN-2061. […] FIG. 16D Schematic of the time-dependent dye labeling strategy used to analyze cells expressing SNAP-dCas9-NS3-NLSNPR (top), and corresponding fluorescence images of dye-labeled HeLa cells (bottom). […] Expression of the chemokine receptor was analyzed by staining of cells anti-CXCR4 antibody followed by quantification via flow cytometry.
FIG. 22 sgRNAs targeting the CXCR4 promoter were co-transfected into HEK 293FT alongside DNAs encoding either dCas9-VPR, or dCas9-NS3-NLS/VPR. The extent of CXCR4 upregulation was subsequently quantified by flow cytometry using a fluorescently-labeled anti-CXCR4 antibody. […]
For expression analyses carried out using dCas9-based TFs, HEK 293FT cells were seeded in 48-well plates and transfected at a density of […] cells per well. […] Expression of the chemokine receptor was analysed via flow cytometry using a fluorescently-conjugated CXCR-4 antibody; geometric means were recorded.

HEK 293FT cells [6] = assay: SynNotch background (leaky) activation, SN versus SN-LWF core, HEK 293FT cells; format: cell-based, human
Method: FIGS. 31A-31C show reduction of SynNotch leakiness by incorporation of the juxtamembrane LWF motif (FIG. 31A) Schematic of the Notch TMD and LWF motif, slightly modified from to highlight the difference between the original SynNotch core's C-terminus and the modified SynNotch core's C-terminus, where 10 amino acids are added to include the LWF motif (FIGS. 31B and 31C) anti-FITC SynNotch receptors containing SN or SN-LWF as the core domain are expressed and tested in HEK 293FT cells. Cells are either plated on fibronectin alone to test background activation (dashed lines) or on fibronectin with BSA-FITC to activate the receptors (solid lines). FIG. 31A discloses SEQ ID NO: 70. […] Values shown are the percentage of cells in the ON state for each case.
Data herein provides preliminary evidence that inclusion of the LWF motif reduces background activation in SynNotch receptors. In initial experiments, the original SynNotch core design (SN) was compare with a SynNotch core containing the LWF motif (SN-LWF) (FIG. 31A). Each receptor core was test with two different transcription factor intracellular domains (ICD's): Gal4 fused to VP64 (“VP64,” a modest transcriptional activator commonly used in SynNotch) and Gal4 fused to VPR (“VPR,” a strong transcriptional activator, whose strength is penalized by high background activation in SynNotch constructs). […]

HEK 293FT cells [7] = assay: Tension Gauge Tether (TGT) assay of Notch/SynNotch receptor activation; format: cell-based, human; conditions: mCherry reporter, flow cytometry
Description: FIG. 5A-5E depict the use of ruptureable double-stranded DNA tethers. […] One strand of the TGT attaches to a rigid plate through biotin-avidin binding, while the other presents a ligand. The TGT ruptures at a defined force, determined by the orientation of the ligand and the biotin. If the TGT is weaker than the force required to activate the Notch receptor, it ruptures before the LNR domains can be displaced. If it is stronger, the LNR domains are displaced and activation occurs.
(FIG. 33A) TGTs are double stranded-DNA tethers that rupture at defined forces. One strand of the TGT attaches to a rigid plate, and the other presents a ligand for cells to bind. In this case, the ligand used is fluorescein, which interacts with an αFITC SynNotch. If the tension tolerance of the TGT is weaker than that of the NRR, the TGT will break before the NRR can open. If it is stronger, the NRR domain will unravel, and Notch activation will occur, as visualized by expression of an H2B-mCherry reporter gene.

COc1ccc2c(O[C@@H]3C[C@H]4C(=O)N[C@]5(C(=O)O)C[C@H]5/C=C\CCCCC[C@H](NC(=O)OC5CCCC5)C(=O)N4C3)cc(-c3csc(NC(C)C)n3)nc2c1 [BILN-2061]
expression of the H2B-Citrine reporter protein (NS3 protease [1]): capable of inducing robust transcriptional responses
BILN-2061 concentration at which TF stabilization was shown (enhanced detection) (NS3 protease [2]): 0.08 µM
regulation of TRE BFP and UAS H2B-Citrine reporters (NS3 protease [3]): induced concurrent TRE BFP activation and UAS H2B-Citrine repression
Notch activation of receiver cells (H2B-Citrine) in coculture (human Notch1; Dll1-NS3-mCherry sender cells): Activated receiver cells were observed only in cocultures treated with drug
surface presentation of Dll1 extracellular region (human Notch1; fixed non-permeabilized cells expressing Dll1-NS3-mCherry): Surface presentation of the Dll1 extracellular region was induced
nuclear localization of dCas9 domain (NS3 protease [4]; HeLa cells, 3 μM BILN-2061): Nuclear localized dCas9 was observed only in drug treated cells
stabilization of full-length dCas9-NS3 TF (immunoblot) (NS3 protease [4]): preservation of full-length dCas9-NS3-NLSNPR copies
preservation of intact turn-off TF proteins (western blot) (NS3 protease [5]): Intact proteins were preserved
upregulation of gene targets (UAS H2B-Citrine reporter, CXCR4) (CXCR4): induce upregulation of both gene targets in a dose-dependent manner

C[C@H](NC(=O)Cc1cc(F)cc(F)c1)C(=O)N[C@H](C(=O)OC(C)(C)C)c1ccccc1 [DAPT]
effect on leaky SynNotch receptor activation (HEK 293FT cells [6]): suppress leaky receptor activation

COc1ccc2c(O[C@@H]3C[C@H]4C(=O)N[C@]5(C(=O)O)C[C@H]5/C=C\CCCCC[C@H](NC(=O)OC5CCCC5)C(=O)N4C3)cc(-c3csc(NC(C)C)n3)nc2c1 [ciluprevir]
stabilization of full-length dCas9-NS3 TF (immunoblot) (NS3 protease [4]): dCNV is stabilized

CC(C)(C)OC(=O)N[C@H]1CCCCC/C=C\[C@@H]2C[C@@]2(C(=O)NS(=O)(=O)C2CC2)NC(=O)[C@@H]2C[C@@H](OC(=O)N3Cc4cccc(F)c4C3)CN2C1=O [danoprevir]
expression of the H2B-Citrine reporter protein (NS3 protease [1]): capable of inducing robust transcriptional responses

B1: WT NRR: "Notch's force-sensitive Negative Regulatory Region, which contains three LNR domains" (protein, listed as Homo sapiens)
chain: ILDYSFGGGAGRDIPPPLIEEACELPECQEDAGNKVCSLQCNNHACGWDGGDCSLNFNDPWKNCTQSLQCWKYFSDGHCDSQCNSAGCLFDGFDCQRAEGQCNPLYDQYCKDHFSDGHCDQGCNSAECEWDGLDCAEHVPERLAAGTLVVVVLMPPEQLRNSSFHFLRELSRVLHTNVVFKRDAHGQQMIFPYYGREEELRKHPIKRAAEGWAAPDALLGQVKASLLPGGSEGGRRRRELDPMDVRGSIVYLEIDNRQCVQASSQCFQSATDVAAFLGALASLGSLNIPYKIEAVQSETVEPPPPAQ
receptor activation on TGTs of defined strength (HEK 293FT cells [7]): activated by both 12 pN and 56 pN TGTs; also recorded: responding identically to all mechanical stimuli
